In patent publication US6342219B1 (Board of Regents, The University of Texas System, priority 1999, dated 2002):

Legend:
[1] = tested on: VEGF alone or VEGF associated with sFlk-1 (VEGF:Flk-1); assay: Indirect and capture ELISA: reactivity with VEGF alone or VEGF:Flk-1; format: binding, human VEGF; mouse Flk-1
Method: The Flk-1/SEAP protein was produced and purified as described by Tessler et al. (1994). Basically, the extracellular domain of Flk-1 (sFlk-1) was produced in Spodoptera frugiperda (Sf9) cells and purified by immunoaffinity techniques utilizing a monoclonal anti-Flk-1 antibody (1A8). sFlk-1 was then biotinylated and bound on avidin-coated plates.
The reactivity was determined as described above for the initial screening.
A capture ELISA was also developed. In the capture ELISA, microtiter plates were coated overnight at 4° C. with 100 ng of the indicated antibody. […] Streptavidin conjugated to peroxidase (Kirkegaard & Perry Laboratories, Inc.), diluted 1:2000, was used as a second layer and developed.

[2] = tested on: VEGF-mediated growth of ABAE cells; assay: Endothelial cell growth assay (MTS); format: cell-based, bovine
Method: ABAE cells were grown in the presence of the various indicated antibodies and 0.5 nM VEGF. Growth after 4 days was determined calorimetrically by the enzymatic conversion of MTS (Owen's reagent) to a yellow formazan. […] Background was determined by growing cells without VEGF or antibody and was subtracted from the control and sample wells.
Adult bovine aortic endothelial (ABAE) cells were plated into 96-well tissue culture plates at 1500 cells/well and grown in the presence of 0.5 nM human VEGF with the addition of the various sample and control antibodies. Control wells received media with or without VEGF.
After 4 days of incubation, the cells were quantified by an MTS (3-(4,5-dimethylthiazol-2-yl)-5-(3-carboxylmethoxyphenyl)-2-(4-sulfophenyl)-2H-tetrazolium, inner salt) conversion assay, where MTS conversion to a formazan is proportional to cell number and can be followed by absorbance at 490 nm (Cell Titer 96 AQueous One Solution Cell Proliferation Assay, Promega, Madison, Wis.). The assay was performed according to the manufacturer's instructions.
Cell growth was estimated by subtracting the MTS conversion in cultures to which VEGF was not added. Results were expressed as a percentage of the MTS conversion in control cultures to which only VEGF was added (Buttke et al., 1993).

NCI-H358 NSCLC = assay: In vivo tumor growth inhibition, newly implanted NCI-H358; design: species or system nu/nu mice
Method: FIG. 3A and FIG. 3B. […] FIG. 3A: 1×10^7 NCI-H358 NSCLC cells were injected subcutaneously into nu/nu mice on day 0. FIG. 3B: 5×10^6 A673 rhabdomyosarcoma cells were injected subcutaneously into nu/nu mice on day 0. Mice were injected i.p. with the indicated IgG on day 1 and 2 times/week thereafter. […] Tumors were measured 2-3 times per week. Mean and standard error is shown for the duration of the study in FIG. 3A, while data for the last day of the study (day 26) is shown in FIG. 3B.
Nu/nu mice were injected subcutaneously with either 1×10^7 NCI-H358 NSCLC cells or 5×10^6 A673 rhabdomyosarcoma cells on day 0. […] The tumors were then measured twice per wk for a period of approximately six wk for the NCI-H358 bearing mice and four wk for the A673 bearing mice. Tumor volume was calculated according to the formula: volume=L×W×H, where L=length, W=width, H=height.

Sequence of VEGF alone or VEGF associated with sFlk-1 (VEGF:Flk-1) (P15692 27-191 isoform P15692-4 limits assumed): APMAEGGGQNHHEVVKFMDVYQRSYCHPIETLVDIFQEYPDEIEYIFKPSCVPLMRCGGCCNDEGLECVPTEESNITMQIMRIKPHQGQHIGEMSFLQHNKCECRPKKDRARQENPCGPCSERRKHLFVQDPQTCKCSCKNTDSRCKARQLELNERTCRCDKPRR

Substance: 2C3: anti-VEGF monoclonal antibody, IgG2a, k, produced by hybridoma ATCC PTA 1595; blocks VEGF binding to VEGFR2 but not VEGFR1 [Clone 2C3]
- Predominant Reactivity [1]: VEGF
- Blocks VEGF-induced proliferation [2]: Yes
- Tumor growth retardation in the NCI-H358 tumor model at the lower dose (NCI-H358 NSCLC; 10 μg dose): less marked
- Final tumor volume, NCI-H358 (NCI-H358 NSCLC; 100 μg i.p. 2 times per wk from day 1, controls approximately 1000 mm^3): approximately 150 mm^3
